{"source": "paper PMC4413647", "about": "“Simultaneous targeting of androgen receptor (AR) and MAPK-interacting kinases (MNKs) by novel retinamides inhibits growth of human prostate cancer cell lines” (Oncotarget, 2014)", "key": {"MR49F cells": {"test_system": "MR49F cells", "test": "MTT growth inhibition in Enzalutamide resistant MR49F cells", "type": "cell-based, human", "conditions": "Homo sapiens, MR49F; read-out: GI50 MR49F (Figure 2C)", "experimental": "Figure 2 Effect of NRs on PCa cell growth and colony formation (A) Representative photographs of colonies formed in PCa cells at 14th day after initial treatment with specified compounds (5 μmol/L). Colonies were fixed with methanol and stained with crystal violet. (B) Data represents the mean ± S.E from three independent experiments. *, P< 0.05; ♣, P<0.01 compared to vehicle treated control. […] NRs that had promising inhibitory effect on cell proliferation on LNCaP cells were tested for their growth inhibitory effect in MR49F cells in comparison with Casodex and Abiraterone acetate by MTT assay.\n(§1) Androgen-dependent (LNCaP), androgen-independent (PC-3) and castration resistant (C4-2B and 22Rv1) human prostate carcinoma cells were procured from American Type Culture Collection, Manassas, VA, USA and maintained in RPMI 1640 media (Gibco-Life Technologies, Grand Island, NY, USA) supplemented with 10% fetal bovine serum and 1% penicillin/streptomycin. […] Immortalized untransformed prostate epithelial cells, PWR1E from American Type Culture Collection were maintained in serum-free Keratinocyte media (Gibco) supplemented with epidermal growth factor and bovine pituitary extract. All cell lines were maintained in a 37 °C/5% CO2 humidified atmosphere.\n(§2) Cell proliferation assay was performed as described previously. For cell growth experiment, cells were treated with the NRs for 7 days. MTT assay was performed at the end of the experiment. Calculations of combination indices were done using the Calcusyn program (Biosoft, Cambridge, United Kingdom). For colony formation assay, cells were plated 1000 per well in complete media and allowed to adhere for 24 h. The next day cells were treated with indicated compounds (5 μM). After 24 h compound containing media were removed, and cells were allowed to form colonies in complete media. Approximately 2 weeks later the colonies were fixed, stained with 0.5% crystal violet (sigma) for 30 min and counted manually. Results represent the mean ± standard deviation of three independent experiments."}, "PCa cells": {"test_system": "PCa cells", "test": "MTT cell viability in PCa cells (LNCaP, PC-3, C4-2B, 22Rv1)", "type": "cell-based, human", "conditions": "Homo sapiens, range over PCa cell lines", "experimental": "as §2"}, "Bax, cleaved PARP-1": {"test_system": "Bax, cleaved PARP-1", "test": "Western blot of Bax and cleaved PARP-1 in PCa cells", "type": "cell-based, human", "conditions": "20 μM, 24 h, among the lead NRs", "experimental": "Figure 4 Effect of NRs on cell cycle and apoptosis (A) LNCaP cells treated with 5 μM of NRs and other compounds for 24 h were stained with PI and analysed with a FACS calibur flow cytometer. (B) Total cell lysates from PCa cells treated with 20 μM of NRs were separated by SDS-PAGE and probed with cyclin D1 and B antibodies. […] (C) LNCaP cells were treated with indicated compounds (5 μmol/L) for 24 h and apoptosis induction was examined by oligonucleosomal fragmentation. Data are shown relative to vehicle treated control and the bars are means of three replicate determinations plus standard deviations. *, P< 0.01; ♣, P<0.05 compared with vehicle treated control. (D) PCa cells as indicated were seeded in 24 well plate, and treated with 5 μmol/L of NRs the subsequent day. After 24 h the plates were analyzed for apoptotic and viable cells using acridine orange/ethidium bromide staining. (E) Western blot analysis of apoptosis associated Bax and cPARP in PCa cells treated with NRs (20 μmol/L) for 24 h. (F) Apoptosis induction in LNCaP cells treated with 5 μmol/L of VNLG-147 and -152 in the presence or absence of ZVAD (5 μmol/L) was assessed by oligonucleosomal fragmentation after 24 h incubation. *, P< 0.05 compared with vehicle treated control. […]"}, "C4-2B cells": {"test_system": "C4-2B cells", "test": "MTT cell proliferation assay, 7 d, C4-2B", "type": "cell-based", "conditions": "Homo sapiens, 168 h, 7 d treatment", "from_the_text": "as §1, §2"}}, "data": [{"molecule": "CC1=C(/C=C/C(C)=C/C=C/C(C)=C/C(=O)Nc2ccc(F)cc2)C(C)(C)CCC1n1ccnc1", "note": "(racemic) [VNLG-152]", "values": [{"measurement": "GI50", "setting": "MR49F cells", "value": 3890, "unit": "nM"}, {"measurement": "GI50", "setting": "PCa cells", "value": "1500 to 5500", "unit": "nM"}, {"measurement": "efficacy in inducing PARP cleavage and/or increasing Bax expression", "setting": "Bax, cleaved PARP-1", "value": "greater efficacies"}, {"measurement": "GI50", "setting": "C4-2B cells", "value": 1540, "unit": "nM"}]}]}
